In this experiment the target is T1, CDK2/Cyclin E (Homo sapiens, UniProt P24941).
T1 construct: The open reading frames of CDK2 and Cyclin E were isolated by reverse transcriptase-PCR; made in house; host or cells: Spodoptera frugiperda SF21 insect cells (baculovirus co-infection); GST-Rb substrate made in E. coli BL21(DE3) pLysS
As to the kind of experiment: in vitro kinase assay (Scintillation Proximity Assay), incorporation of [γ-33-P]-ATP into GST-Rb. The settings on record: CDK2/Cyclin E partially-purified enzyme, GST-Rb substrate, 0.2 μM ATP, room temperature 60 mins; read-out: CDK2 inhibitory activity IC50. It is filed as biochemical. On the procedure: The compounds were tested in an in vitro kinase assay in 96 well format using Scintillation Proximity Assay (SPA—obtained from Amersham) for measuring incorporation of [γ-33-P]-Adenosine Triphosphate into a test substrate (GST-Retinoblastoma protein; GST-Rb). In each well was placed the compound to be tested (diluted in DMSO and water to correct concentrations) and in control wells either roscovitine as an inhibitor control or DMSO as a positive control. […]
The plates were sealed with Topseal-S plate sealers, left for two hrs then spun at 2500 rpm, 1124×g., for 5 mins. The plates were read on a Topcount for 30 seconds per well. […]
E. coli paste was resuspended in 10 ml/g of NETN buffer (50 mM Tris pH 7.5, 120 mM NaCl, 1 mM EDTA, 0.5% v/v NP-40, 1 mM PMSF, 1 ug/ml leupeptin, 1 ug/ml aprotinin and 1 ug/ml pepstatin) and sonicated for 2×45 seconds per 100 ml homogenate. […] The final product was analysed by Sodium Dodeca Sulfate (SDS) PAGE (Polyacrylamide gel) using 8-16% Tris-Glycine gels (Novex, San Diego, USA).
The open reading frames of CDK2 and Cyclin E were isolated by reverse transcriptase-PCR using HeLa cell and activated T cell mRNA as a template and cloned into the insect expression vector pVL1393 (obtained from Invitrogen 1995 catalogue number: V1392-20). […]
(In general: SPA uses beads or plates that emit light when radiolabelled molecules are held near them.)

The structures appear in SMILES notation.

A word on the IC50: it is the concentration needed to halve the response being measured. For `Cc1ncc(-c2ccnc(N[C@H]3CC[C@H](N(C)C)CC3)n2)n1C(C)C` [Example 4, trans-N′,N′-Dimethyl-N-[4-(2-methyl-3-propan-2-yl-imidazol-4-yl)pyrimidin-2-yl]cyclohexane-1,4-diamine], the IC50 is 159 nM.

Values taken from US20100063049A1, “2-CARBOCYCLOAMINO-4-IMIDAZOLYLPYRIMIDINES AS AGENTS FOR THE INHBITION OF CELL PROLIFERATION” (priority 2006, published 2010).
